Measurements published in publication PMC6222781, “Structural Optimization of Foldamer-Dendrimer Conjugates as Multivalent Agents against the Toxic Effects of Amyloid Beta Oligomers” (Molecules : A Journal of Synthetic Chemistry and Natural …, 2018).

Tests used:
[1] = molecular target: T1, Aβ oligomers (Homo sapiens, UniProt P05067); test: Isothermal titration calorimetry (ITC) binding to Aβ oligomers; details: PBS pH 7.4, 285 K, Aβ 100 µM in cell, ligand 250 µM in syringe, two independent site model
T1 construct: Ser^26 depsipeptide iso-Aβ (1–42) was used; made in house; host or cells: chemical peptide synthesis (no expression host)
T1 sequence (P05067 672-713 limits assumed): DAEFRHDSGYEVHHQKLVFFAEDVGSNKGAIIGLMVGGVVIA
Procedure: The binding affinities of 2b–2i to Aβ oligomers were tested in ITC experiments.
In this work, Ser^26 depsipeptide iso-Aβ (1–42) was used, which was synthesized and purified as described previously. The lyophilized iso-Aβ (1–42) was dissolved in MilliQ water to a concentration of 1 mg mL^−1, sonicated for 3 min and the pH was set to 7.0 to initiate an O to N acyl migration, whereby the native sequence can be readily formed. The sample was incubated at room temperature for 10 min. Then the pH was set to 11 and the sample was kept at room temperature for additional 2 h. After the incubation, the Aβ stock solution was aliquoted and stored at −20 °C until use. To obtain Aβ oligomers, the 1 mg mL^−1 aliquot was diluted to a final concentration of 50 μM with 26.67 mM PBS and the pH was set to 7.4 with 1 M HCl. The sample was incubated at 37 °C for 3 h.
Isothermal calorimetric titrations were performed with a Microcal VP-ITC microcalorimeter in pH 7.4 PBS buffer solution. In individual titrations, 10 µL portions of the ligand containing solution were repeatedly injected from the computer-controlled 300-µL microsyringe at intervals of 300 s into the Aβ oligomer solution prepared in the same buffer as the ligand. All measurements were carried out at 285 K. The Aβ concentration in the cell was 100 µM and the total ligand concentration was 250 µM in the syringe and the titration was stopped when the precipitation of the Aβ aggregates became excessive. Control experiments were performed by injecting the ligand into a cell containing buffer with no target, and the heats of dilution were subtracted from those measured in the presence of Aβ. The experimental data were fitted to the two independent site binding models by using a nonlinear least-squares procedure, with ΔHb, ΔHb’, Kd, Kd’ ([…]), n and n’ (number of binding sites for monomer), as adjustable parameters.

[2] = molecular target: T1, Aβ oligomers; test: Sandwich ELISA binding of biotin-tagged conjugates to Aβ
Description: To study the role of certain structure elements in the binding affinity, a set of new foldamer sequences were designed (Figure 2) and ligated to lysine-dendron scaffolds having a focal symmetry. This template with biotin affinity tag can be easily synthesized by solid phase peptide synthesis and immobilized on a streptavidin coated support such as the surface of the ELISA plate. Structural changes included fine-tuning the side-chain properties (2b–2d), changing the position of ionic residues (2e) and introducing bulky bicyclic side-chains (2f–2i).
The binding affinities of 2b–2i to Aβ oligomers were tested in ITC experiments. In such cases where the fitting failed due to low heat response or poor solubility, sandwich ELISA experiments were performed to enable the comparison of all conjugates (see Supporting Information for details).
The apparent dissociation constants for the complete set of new conjugates were calculated individually from the data of the ELISA experiments as well. Comparing the KD values of 2f–2i in this case, the replacement of ACHC to ABHC had only a minor effect on the Aβ binding. The cyclic β-amino acid ACHC not only provides the helical conformation of such a short foldamer but also protects the ionic residues from solvent upon binding due to its hydrophobicity.

Row | Structure (SMILES) | Kd ([1]; KD ITC, first binding stage, Table 1) [nM] | Kd ([1]; KD ITC, second binding stage, Table 1) [nM] | Kd [2] [nM] | Kd ([1]; KD, first binding stage, Table 2) [nM] | Kd ([1]; KD, second binding stage, Table 2) [nM]
1 | N=C(N)NCCC[C@@H](CC(=O)N[C@H]1CCCC[C@@H]1C(=O)N[C@H]1CCCC[C@@H]1C(=O)N[C@@H](CCC(=O)O)CC(=O)N[C@H]1CCCC[C@@H]1C(=O)NCC(=O)NCC(=O)N[C@@H](CSC1CC(=O)N(CCC(=O)NCCCC[C@H](NC(=O)CCN2C(=O)CC(SC[C@H](NC(=O)CNC(=O)CNC(=O)[C@H]3CCCC[C@@H]3NC(=O)C[C@H](CCC(=O)O)NC(=O)[C@H]3CCCC[C@@H]3NC(=O)[C@H]3CCCC[C@@H]3NC(=O)C[C@H](CCCNC(=N)N)NC(=O)[C@H]3CCCC[C@@H]3N)C(N)=O)C2=O)C(=O)NCCCC[C@H](NC(=O)[C@H](CCCCNC(=O)CCN2C(=O)CC(SC[C@H](NC(=O)CNC(=O)CNC(=O)[C@H]3CCCC[C@@H]3NC(=O)C[C@H](CCC(=O)O)NC(=O)[C@H]3CCCC[C@@H]3NC(=O)[C@H]3CCCC[C@@H]3NC(=O)C[C@H](CCCNC(=N)N)NC(=O)[C@H]3CCCC[C@@H]3N)C(N)=O)C2=O)NC(=O)CCN2C(=O)CC(SC[C@H](NC(=O)CNC(=O)CNC(=O)[C@H]3CCCC[C@@H]3NC(=O)C[C@H](CCC(=O)O)NC(=O)[C@H]3CCCC[C@@H]3NC(=O)[C@H]3CCCC[C@@H]3NC(=O)C[C@H](CCCNC(=N)N)NC(=O)[C@H]3CCCC[C@@H]3N)C(N)=O)C2=O)C(=O)N[C@@H](CCCCNC(=O)CCCC[C@@H]2SC[C@@H]3NC(=O)N[C@@H]32)C(N)=O)C1=O)C(N)=O)NC(=O)[C@H]1CCCC[C@@H]1N (stereo partly shown) [Compound 2c] | 2.53 ± 1.81 | 175 ± 46.4 | 1.92 ± 0.21 | – | –
2 | N=C(N)NCCC[C@@H](CC(=O)N[C@H]1CCCC[C@@H]1C(=O)N[C@@H](CC(=O)O)CC(=O)N[C@H]1CCCC[C@@H]1C(=O)NCC(=O)NCC(=O)N[C@@H](CSC1CC(=O)N(CCC(=O)NCCCC[C@H](NC(=O)CCN2C(=O)CC(SC[C@H](NC(=O)CNC(=O)CNC(=O)[C@H]3CCCC[C@@H]3NC(=O)C[C@H](CC(=O)O)NC(=O)[C@H]3CCCC[C@@H]3NC(=O)C[C@H](CCCNC(=N)N)NC(=O)[C@H]3CCCC[C@@H]3NC(=O)[C@H]3CCCC[C@@H]3N)C(N)=O)C2=O)C(=O)NCCCC[C@H](NC(=O)[C@H](CCCCNC(=O)CCN2C(=O)CC(SC[C@H](NC(=O)CNC(=O)CNC(=O)[C@H]3CCCC[C@@H]3NC(=O)C[C@H](CC(=O)O)NC(=O)[C@H]3CCCC[C@@H]3NC(=O)C[C@H](CCCNC(=N)N)NC(=O)[C@H]3CCCC[C@@H]3NC(=O)[C@H]3CCCC[C@@H]3N)C(N)=O)C2=O)NC(=O)CCN2C(=O)CC(SC[C@H](NC(=O)CNC(=O)CNC(=O)[C@H]3CCCC[C@@H]3NC(=O)C[C@H](CC(=O)O)NC(=O)[C@H]3CCCC[C@@H]3NC(=O)C[C@H](CCCNC(=N)N)NC(=O)[C@H]3CCCC[C@@H]3NC(=O)[C@H]3CCCC[C@@H]3N)C(N)=O)C2=O)C(=O)N[C@@H](CCCCNC(=O)CCCC[C@@H]2SC[C@@H]3NC(=O)N[C@@H]32)C(N)=O)C1=O)C(N)=O)NC(=O)[C@H]1CCCC[C@@H]1NC(=O)[C@H]1CCCC[C@@H]1N (stereo partly shown) [Compound 2e] | – | – | 2.71 ± 0.21 | – | –
3 | N=C(N)NCCC[C@H](NC(=O)[C@H]1CCCC[C@@H]1N)C(=O)N[C@H]1CCCC[C@@H]1C(=O)N[C@H]1CCCC[C@@H]1C(=O)N[C@@H](CC(=O)O)C(=O)N[C@H]1CCCC[C@@H]1C(=O)NCC(=O)NCC(=O)N[C@@H](CSC1CC(=O)N(CCC(=O)NCCCC[C@H](NC(=O)CCN2C(=O)CC(SC[C@H](NC(=O)CNC(=O)CNC(=O)[C@H]3CCCC[C@@H]3NC(=O)[C@H](CC(=O)O)NC(=O)[C@H]3CCCC[C@@H]3NC(=O)[C@H]3CCCC[C@@H]3NC(=O)[C@H](CCCNC(=N)N)NC(=O)[C@H]3CCCC[C@@H]3N)C(N)=O)C2=O)C(=O)NCCCC[C@H](NC(=O)[C@H](CCCCNC(=O)CCN2C(=O)CC(SC[C@H](NC(=O)CNC(=O)CNC(=O)[C@H]3CCCC[C@@H]3NC(=O)[C@H](CC(=O)O)NC(=O)[C@H]3CCCC[C@@H]3NC(=O)[C@H]3CCCC[C@@H]3NC(=O)[C@H](CCCNC(=N)N)NC(=O)[C@H]3CCCC[C@@H]3N)C(N)=O)C2=O)NC(=O)CCN2C(=O)CC(SC[C@H](NC(=O)CNC(=O)CNC(=O)[C@H]3CCCC[C@@H]3NC(=O)[C@H](CC(=O)O)NC(=O)[C@H]3CCCC[C@@H]3NC(=O)[C@H]3CCCC[C@@H]3NC(=O)[C@H](CCCNC(=N)N)NC(=O)[C@H]3CCCC[C@@H]3N)C(N)=O)C2=O)C(=O)N[C@@H](CCCCNC(=O)CCCC[C@@H]2SC[C@@H]3NC(=O)N[C@@H]32)C(N)=O)C1=O)C(N)=O (stereo partly shown) [Compound 2d] | – | – | 7.7 ± 3.06 | – | –
4 | N=C(N)NCCC[C@@H](CC(=O)N[C@H]1CCCC[C@@H]1C(=O)N[C@H]1CCCC[C@@H]1C(=O)N[C@@H](CC(=O)O)CC(=O)N[C@H]1CCCC[C@@H]1C(=O)NCC(=O)NCC(=O)N[C@@H](CSC1CC(=O)N(CCC(=O)NCCNC(=O)CCN(CCNC(=O)CCN(CCC(=O)NCCN(CCC(=O)NCCNC(=O)CCN2C(=O)CC(SC[C@H](NC(=O)CNC(=O)CNC(=O)[C@H]3CCCC[C@@H]3NC(=O)C[C@H](CC(=O)O)NC(=O)[C@H]3CCCC[C@@H]3NC(=O)[C@H]3CCCC[C@@H]3NC(=O)C[C@H](CCCNC(=N)N)NC(=O)[C@H]3CCCC[C@@H]3N)C(N)=O)C2=O)CCC(=O)NCCNC(=O)CCN2C(=O)CC(SC[C@H](NC(=O)CNC(=O)CNC(=O)[C@H]3CCCC[C@@H]3NC(=O)C[C@H](CC(=O)O)NC(=O)[C@H]3CCCC[C@@H]3NC(=O)[C@H]3CCCC[C@@H]3NC(=O)C[C@H](CCCNC(=N)N)NC(=O)[C@H]3CCCC[C@@H]3N)C(N)=O)C2=O)CCN(CCC(=O)NCCN(CCC(=O)NCCNC(=O)CCN2C(=O)CC(SC[C@H](NC(=O)CNC(=O)CNC(=O)[C@H]3CCCC[C@@H]3NC(=O)C[C@H](CC(=O)O)NC(=O)[C@H]3CCCC[C@@H]3NC(=O)[C@H]3CCCC[C@@H]3NC(=O)C[C@H](CCCNC(=N)N)NC(=O)[C@H]3CCCC[C@@H]3N)C(N)=O)C2=O)CCC(=O)NCCNC(=O)CCN2C(=O)CC(SC[C@H](NC(=O)CNC(=O)CNC(=O)[C@H]3CCCC[C@@H]3NC(=O)C[C@H](CC(=O)O)NC(=O)[C@H]3CCCC[C@@H]3NC(=O)[C@H]3CCCC[C@@H]3NC(=O)C[C@H](CCCNC(=N)N)NC(=O)[C@H]3CCCC[C@@H]3N)C(N)=O)C2=O)CCC(=O)NCCN(CCC(=O)NCCNC(=O)CCN2C(=O)CC(SC[C@H](NC(=O)CNC(=O)CNC(=O)[C@H]3CCCC[C@@H]3NC(=O)C[C@H](CC(=O)O)NC(=O)[C@H]3CCCC[C@@H]3NC(=O)[C@H]3CCCC[C@@H]3NC(=O)C[C@H](CCCNC(=N)N)NC(=O)[C@H]3CCCC[C@@H]3N)C(N)=O)C2=O)CCC(=O)NCCNC(=O)CCN2C(=O)CC(SC[C@H](NC(=O)CNC(=O)CNC(=O)[C@H]3CCCC[C@@H]3NC(=O)C[C@H](CC(=O)O)NC(=O)[C@H]3CCCC[C@@H]3NC(=O)[C@H]3CCCC[C@@H]3NC(=O)C[C@H](CCCNC(=N)N)NC(=O)[C@H]3CCCC[C@@H]3N)C(N)=O)C2=O)CCC(=O)NCCNC(=O)CCN2C(=O)CC(SC[C@H](NC(=O)CNC(=O)CNC(=O)[C@H]3CCCC[C@@H]3NC(=O)C[C@H](CC(=O)O)NC(=O)[C@H]3CCCC[C@@H]3NC(=O)[C@H]3CCCC[C@@H]3NC(=O)C[C@H](CCCNC(=N)N)NC(=O)[C@H]3CCCC[C@@H]3N)C(N)=O)C2=O)C1=O)C(N)=O)NC(=O)[C@H]1CCCC[C@@H]1N (stereo partly shown) [Compound 6] | – | – | – | 69 ± 12 | 193 ± 30.5
